Test results as given in paper PMC8396575, ““Molecular Masks” for ACE2 to Effectively and Safely Block SARS-CoV-2 Virus Entry” (International Journal of Molecular Sciences, 2021).
Bridge positions count the residues as written; N and C are the ends. Square brackets hold non-standard residues; d marks the D form. Peptide text beside a SMILES is read from it. I, II: the chains in the order shown. N(4-MeOBn)Gly = COc1ccc(CNCC(=O)O)cc1; N((CH2)3OiPr)Gly = CC(C)OCCCNCC(=O)O; Nrpe = C[C@@H](NCC(=O)O)c1ccccc1; NAllylGly = C=CCNCC(=O)O; Nleu = CC(C)CNCC(=O)O; Nme = COCCNCC(=O)O

Legend:
NCI-H1299 cells = experiment: WST-1 cell viability assay, NCI-H1299; format: cell-based, human; settings: WST-1, 48 h, concentrations tested up to 20 µM; n = 3–5/group
Excerpt: (§1) We assessed whether ACE2P1D1 and ACE2P2D1 are toxic to the cells. We seeded and treated increasing concentrations of ACE2P1D1 and ACE2P2D1 on NCI-H1299, Caco-2, and MCF-7 cells. The standard WST-1 assay was used to measure the cell viability. As shown in Figure 5c–e, treatment with both compounds had no effects on cell viability in NCI-H1299, MCF-7, and Caco-2 cells.

[1] = biological target: T1, recombinant human angiotensin-converting enzyme 2 (ACE2) (His-tag) (Homo sapiens, UniProt Q9BYF1); experiment: ELISA-like quantitative ACE2-peptoid binding assay
T1 construct: purchased RayBiotech 230-30165-100
T1 sequence (Q9BYF1 18-805): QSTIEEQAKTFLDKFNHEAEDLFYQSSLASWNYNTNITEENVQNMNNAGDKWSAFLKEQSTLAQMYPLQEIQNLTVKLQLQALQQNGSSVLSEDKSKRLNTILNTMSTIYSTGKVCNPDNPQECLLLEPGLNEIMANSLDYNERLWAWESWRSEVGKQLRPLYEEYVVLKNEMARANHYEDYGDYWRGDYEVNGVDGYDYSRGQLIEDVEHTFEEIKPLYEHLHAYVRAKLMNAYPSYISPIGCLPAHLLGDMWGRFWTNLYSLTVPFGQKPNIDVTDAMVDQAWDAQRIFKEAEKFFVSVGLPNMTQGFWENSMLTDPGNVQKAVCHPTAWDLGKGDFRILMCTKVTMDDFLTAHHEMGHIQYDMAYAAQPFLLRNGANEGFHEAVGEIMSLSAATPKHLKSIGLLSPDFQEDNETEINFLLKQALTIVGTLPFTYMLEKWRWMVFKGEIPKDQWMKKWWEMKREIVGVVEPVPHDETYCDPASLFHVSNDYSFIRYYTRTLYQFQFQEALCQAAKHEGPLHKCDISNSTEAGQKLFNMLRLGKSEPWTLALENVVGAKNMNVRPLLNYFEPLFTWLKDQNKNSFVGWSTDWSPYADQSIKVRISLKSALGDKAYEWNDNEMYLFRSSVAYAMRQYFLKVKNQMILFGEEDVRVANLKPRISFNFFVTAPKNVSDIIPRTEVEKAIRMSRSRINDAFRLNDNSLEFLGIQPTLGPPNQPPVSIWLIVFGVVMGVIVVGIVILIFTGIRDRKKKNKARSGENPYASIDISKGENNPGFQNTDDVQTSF
Procedure: We first validated the OBTC screening results by resynthesizing ACE2P1 and ACE2P2 on tentagel beads and incubated them with red cells (ACE2 positive) and green cells (ACE2 negative) separately as well as 1:1 mixture of these cells. […] Next, we incubated recombinant ACE2 protein with the ACE2P1 or ACE2P2 conjugated tentagel beads and performed in vitro pull-down assay. […] To confirm a direct interaction between the peptoids and ACE2, we performed a thermal shift assay using recombinant ACE2 protein. The Applied Biosystems™ Protein Thermal Shift™ assay measures protein thermal stability using a fluorescent protein-binding dye. […] The protein is mixed with the dye and heated; as it unfolds or melts, hydrophobic parts of the protein are exposed and bind to the dye, resulting in fluorescence emission detected by the qPCR system. Binding of a ligand to the protein changes the stability of the protein, resulting in a change in fluorescence intensity. […] Finally, we performed a previously published ELISA-like quantitative binding assay to quantify the peptoid-ACE2 binding event. The recombinant His-tagged ACE2 protein was attached to the Nickel-coated 96-well plate. […] After washing, the remaining compounds were probed with streptavidin-HRP system followed by detecting luminescence signals using a spectrophotometer. […]

[2] = tested on: ACE2 activity in Caco-2 cells; experiment: ACE2 enzyme activity in Caco-2 cells; format: cell-based, human; settings: 40 µg cell lysate, cOmplete protease inhibitor 40 µL/mL, 10 µM captopril; fluorescence; n = 3/group
Procedure: ACE2 is an enzyme which lowers blood pressure by catalyzing the hydrolysis of angiotensin II [49]. […] To determine if ACE2P1D1 and ACE2P2D1 interfere with the normal functions of ACE2, we examined the effects of the peptoids on ACE2 enzyme activity. ACE2 enzyme activity was measured by fluorescence generated from the cleavage of the substrate Mca-YVADAPK(Dnp) by ACE2. […] We then examined the effects of ACE2P1D1 and ACE2P2D1 on ACE2 activity in cultured cells. For measuring ACE2 activity in cells, cell homogenates were used. To prevent hydrolysis of the substrate by a range of nonmetalloprotease enzymes from the cells, cOmplete™ Protease Inhibitor Cocktail (Roche/Sigma—40 µL/mL) was added to the cell homogenates. To eliminate the effects of ACE on the substrate, ACE inhibitor captopril (10 µM) was added to the assay.
ACE2 enzyme activity was determined using recombinant ACE2 protein (R&D system Inc., Cat# 933-ZN-010, Minneapolis, MN, USA) alone or in the presence of ACE2P1D1 and ACE2P2D1 in different concentrations (0.1 µM, 1 µM, and 10 µM), and Mc[…] (Dnp)-OH, Fluorogenic Peptide Substrate VI from R&D System, Inc. (Cat# ES007, Minneapolis, MN, USA). […] ACE2 enzyme activity was measured every 20 min by fluorescence plate reader (BioTek Cytation 5 cell Imaging Multi-Mode Reader, Winooski, VT, USA) with excitation at 320 nm and emission at 405 nm.

Caco-2 cells = experiment: WST-1 cell viability assay, Caco-2; format: cell-based, human; settings: WST-1, 48 h, concentrations tested up to 20 µM; n = 3–5/group
Excerpt: as §1

[3] = tested on: ACE2 cell surface expression in Caco-2 cells; experiment: Flow cytometry, ACE2 cell surface expression, Caco-2; format: cell-based, human; settings: 10 µM, 48 h
Procedure: To evaluate the impact of compounds to ACE2 upon binding in cell lines, MCF-7, NCI-H1299, and Caco-2 cell cultures reaching 70% confluences were incubated with 10 μM ACE2P1D1 and ACE2P2D1 for 48 h and then harvested using trypsin. Briefly, cells were centrifuged and washed with FACS buffer and then fixed by methanol on ice. Cells were suspended with a primary antibody-staining mixture using 0.5 μg (Human/Mouse/Rat/Hamster ACE-2 Antibody, R&D Systems, Inc., Cat# AF933, Minneapolis, MN, USA) per sample. Samples were incubated at room temperature for 1 h followed by washing and secondary antibody (mouse anti-goat IgG-FITC, Santa Cruz, Cat# sc-2356, Dallas, TX, USA) staining. Samples were incubated for another hour and washed before being analyzed using Accuri™ C6 (BD Biosciences, Franklin Lakes, NJ, USA). Data analysis was conducted by FlowJo™ v10 software (v10.5.2, FlowJo. LLC, Ashland, OR, USA).

[4] = tested on: total ACE2 protein in Caco-2 cells; experiment: Western blot, total ACE2, Caco-2; format: cell-based, human; settings: various concentrations, 48 h
Procedure: Cells were lysed in RIPA buffer (1% NP-40, 0.5% sodium deoxycholate, 0.1% SDS in PBS). Complete protease inhibitor cocktail (Roche, St. Louis, MO, USA) was added to lysis buffer before use. Protein concentration was determined by Bio-Rad DC protein assay (Bio-Rad, Hercules, CA, USA). Protein samples were subjected to SDS-PAGE and transferred to nitrocellulose membrane. The membrane was blocked in 5% non-fat milk in PBST overnight and incubated with primary antibody and subsequently with appropriate horse radish peroxidase-conjugated secondary antibody. Signals of targeted proteins were detected by the Immun-Star HRP peroxide Luminol/Enhancer (Bio-Rad, Hercules, CA, USA) and recorded on ChemiDoc Touch Imaging System (Bio-Rad, Hercules, CA, USA). Anti-hACE2 (human ACE2 receptor) antibody was purchased from R&D system, Inc. (Cat# AF933, Minneapolis, MN, USA). Full western blot data are given in Supplementary Material (Figures S14–S16).

MCF-7 cells = experiment: WST-1 cell viability assay, MCF-7; format: cell-based, human; settings: WST-1, 48 h, concentrations tested up to 20 µM; n = 3–5/group
Excerpt: as §1

Row | Compound | effect on cell viability, NCI-H1299 (NCI-H1299 cells) | Kd [1] [nM] | effect on ACE2 activity in cultured Caco-2 cells [2] | effect on cell viability, Caco-2 (Caco-2 cells) | cell surface expression of ACE2, Caco-2 [3] | total ACE2 protein level, Caco-2 [4] | effect on cell viability, MCF-7 (MCF-7 cells)
1 | COCCN(CC(=O)N[C@@H](CCCCN)C(=O)N[C@@H](CCSC)C(=O)NCCCC[C@H](NC(=O)[C@H](CCSC)NC(=O)[C@H](CCCCN)NC(=O)CN(CCOC)C(=O)CN(CC(C)C)C(=O)CN(CC(C)C)C(=O)CN(CCCOC(C)C)C(=O)CN(Cc1ccc(OC)cc1)C(=O)CNCc1ccc(OC)cc1)C(N)=O)C(=O)CN(CC(C)C)C(=O)CN(CC(C)C)C(=O)CN(CCCOC(C)C)C(=O)CN(Cc1ccc(OC)cc1)C(=O)CNCc1ccc(OC)cc1 [ACE2P2D1] (I: H-[N(4-MeOBn)Gly][N(4-MeOBn)Gly][N((CH2)3OiPr)Gly][Nleu][Nleu][Nme]KMK-NH2 / II: H-[N(4-MeOBn)Gly][N(4-MeOBn)Gly][N((CH2)3OiPr)Gly][Nleu][Nleu][Nme]KM; amide I:9-II:C) | had no effect on the cell viability | 110 | had no effects on ACE2 activity | had no effect on the cell viability | did not decrease the cell surface expression of ACE2 | total ACE2 protein levels did not change | had no effect on the cell viability
2 | C=CCN(CC(=O)N(CC(=O)N[C@@H](CCCCN)C(=O)N[C@@H](CCSC)C(=O)NCCCC[C@H](NC(=O)[C@H](CCSC)NC(=O)[C@H](CCCCN)NC(=O)CN(C(=O)CN(CC=C)C(=O)CN(Cc1ccc(OC)cc1)C(=O)CN(C(=O)CN(CCOC)C(=O)CNCC(C)C)[C@H](C)c1ccccc1)[C@H](C)c1ccccc1)C(N)=O)[C@H](C)c1ccccc1)C(=O)CN(Cc1ccc(OC)cc1)C(=O)CN(C(=O)CN(CCOC)C(=O)CNCC(C)C)[C@H](C)c1ccccc1 [ACE2P1D1] (I: H-[Nleu][Nme][Nrpe][N(4-MeOBn)Gly][NAllylGly][Nrpe]KMK-NH2 / II: H-[Nleu][Nme][Nrpe][N(4-MeOBn)Gly][NAllylGly][Nrpe]KM; amide I:9-II:C) | had no effect on the cell viability | 60 | had no effects on ACE2 activity | had no effect on the cell viability | did not decrease the cell surface expression of ACE2 | total ACE2 protein levels did not change | had no effect on the cell viability
